Literature values in patent US20050085446A1, “Fluoroquinolone formulations and methods of making and using the same” (priority 2003, published 2005).
Like-named read-outs stand apart in the source and are kept apart here.

System: bacterial strains

| Compound | MIC90 (generally around) | MIC90 [μg/gm] |
| --- | --- | --- |
| O=C(O)c1cn(C2CC2)c2cc(N3CCNCC3)c(F)cc2c1=O [ciprofloxacin, 1-cyclopropyl-6-fluoro-1,4-dihydro-4-oxo-7-(1-piperazinyl)-3-quinolinecarboxylic acid] | around 0.5 μg/g |  |
| gentamicin |  | 10 |
